Reference: a melting point compilation (Tetko et al.; mined from patent text by program, amines drawn as free bases though some values may be those of a salt)

Compound	melting point [°C]
CCn1cc(C(=O)O)c(=O)c2cc(F)c(N)nc21	299 to 303
COC(=O)c1cc(-c2c(OC)cccc2OC)n(-c2ccc(NS(=O)(=O)c3ccc(C)cc3)cc2C2CCCC2)n1	200 to 230
COCCOc1cc(C(F)(F)F)cnc1-c1nc(C)c(-c2ccnc(Nc3ccc(N4CCOCC4)cc3)n2)s1	175 to 178
N#Cc1c(Cl)c(Cl)c(Oc2ccccc2)c(Cl)c1C#N	147 to 150
O=c1[nH]c2ccc(Cn3ccnc3)cc2[nH]1	254
CN(C)CCN1CCC(=Cc2cc(C(C)(C)C)c(O)c(C(C)(C)C)c2)C1=O	150
c1ccc(-c2ncc(-c3cnc(-c4ccccc4)o3)cn2)cc1	228 to 231
O=C(c1ccccc1)N1CCCC2=C1CCc1cc(Cl)ccc12	194 to 196
COCCn1cc2c(C3C(=O)Nc4ccc(Br)cc43)nc(Cl)nc2n1 (centres undefined)	> 300
CC(=O)OC1O[C@H](CN=[N+]=[N-])[C@H](OC(C)=O)[C@H](OC(C)=O)[C@H]1OC(C)=O (some centres undefined)	89.9 to 90.3
CCOP(=O)(O)Cc1ccc(NC(=O)N2CCN(c3ccc(NC(=O)Nc4cc(C)ccc4OC)cc3)CC2)c(C)c1	165 to 173
O=c1ncc2c3c(ccc2[nH]1)OCO3	> 300
CC(=O)c1cccc(OCCCCCC(=O)O)c1	70 to 72
CS(=O)(=O)c1ccc(C2=C(c3ccc(-c4cscn4)cc3)C(=O)OC2)cc1F	218
O=[N+]([O-])c1oc2c(CO)cccc2c1-c1ccccc1	128 to 130
Cc1ccc(-c2cccc(/C=C/C(=O)O)c2)cc1	186 to 187
CC(C)(C)OC(=O)N1CCCC(C(=O)N2CCC(c3[nH]nc4c3C(=O)c3c(NC(=O)NN5CCOCC5)cccc3-4)CC2)C1 (centres undefined)	196 to 198
NC(=O)Nc1n[nH]c(-c2ccncc2)c1-c1ccc(F)cc1	224 to 225
O=c1cc(COC2CCCCO2)occ1OCCCCCBr (centres undefined)	140
CCOC(=O)c1ncn(-c2nc(C)cs2)c1Cl	98 to 101
CC1(C)CCOC1=C(Oc1ccc(Cl)cc1)n1ccnc1	85 to 88
CC(=O)ONC(=N)c1ccc(NC(=O)CCCC(=O)Nc2ccc(C(=N)NOC(C)=O)cc2)cc1	225 to 228
O=C(O)c1ccc(-c2cc(-c3ccccc3)on2)cc1	297 to 298
CCCOc1ccccc1-c1nc2nnc(OC)nc2c(=O)[nH]1	221 to 222
CN(C(=O)CN(C(=O)CNC(=O)Nc1cccc(S(N)(=O)=O)c1)c1ccccc1)c1ccccc1	175

Compound	melting point [°C]
CCOC(=O)Cc1c(SC)c2cc(F)ccc2n1Cc1ccc(Cl)cc1	118 to 119
CC(C)(C)OC(=O)N1CCNC(=O)C1Cc1ccc(OCc2ccccc2)cc1 (centres undefined)	145 to 147
O=C(O)c1cc(C(=O)O)c2c(c1)C(C(=O)O)CCN2 (centres undefined)	240 to 241
O=C1Nc2ccccc2C2=NC(CN3CCN(c4ccccc4)CC3)CN12 (centres undefined)	257 to 258
NNC(=O)c1cccc(OCc2csc(-c3ccccc3F)n2)c1	143 to 145
CCCc1nc(C(=O)OC)c(C(=O)OC)n1Cc1ccc(-c2ccccc2-c2nnn[nH]2)cc1	124 to 126
COc1ccc(C2CC(n3cncn3)c3ccccc3N2)cc1 (centres undefined)	170 to 172
O=C(COc1cc(C(=O)N2CCOCC2)ccc1[N+](=O)[O-])c1ccccc1	172 to 173
Cc1c(C)c2c(c(C)c1OCc1ccccc1)C(=O)C(C)(C)O2	114 to 115
CC(C)(C)OC(=O)c1ccc(NC2CCc3cc4nc(CO)[nH]c(=O)c4cc32)cc1 (racemic)	265 to 266
COC(=O)NS(=O)(=O)c1cccc([N+](=O)[O-])c1	121 to 123
CN(C)CCN(C)c1ccc(Nc2cc(-c3cc(F)cc(N4CCc5c(sc6c5CCCC6)C4=O)c3CO)cn(C)c2=O)nc1	122 to 123
CCCCOP(=O)(CCCC1(c2ccccn2)c2ccccc2-c2ccccc21)OCCCC	126 to 128
CN(C)C(=S)SC(C[N+](=O)[O-])c1ccc(Cl)s1 (centres undefined)	76 to 77
COc1ccc(N2CCN(CCn3c(=O)[nH]c4sccc4c3=O)CC2)cc1	249 to 251
Cn1cc(-c2cc3nccnc3[nH]2)c2cc(C(=O)NC(C)(C)CO)ccc21	210 to 214
Cn1cc(-c2ccc3c(ccn3-c3ccc(F)cc3)c2)cn1	144 to 145
Cc1n[nH]c(Cn2ccnc2C)c1Oc1cc(Cl)cc(C#N)c1	212 to 214
Nc1ccc(F)c(NC(=O)C(F)(F)F)c1	116 to 118
C(=C\c1nc(COc2ccc(CCCn3cnnn3)cc2)co1)/c1ccccc1	147 to 148
CCn1c([N+](=O)[O-])cnc1C=CN(C)C	124 to 125
CC(C)(C)OC(=O)N(C(=O)OC(C)(C)C)C(Cc1c[nH]cn1)C(=O)OCc1ccccc1 (centres undefined)	97 to 99.5
O=C(NC1CCN(CCCOc2ccccc2C(=O)O)CC1)c1ccccc1	207 to 208
O=C1c2ccccc2C(=O)N1CC1CCC2CN(c3ccccn3)CCN2C1 (centres undefined)	167 to 168
